{
  "source": "ChEMBL document CHEMBL1201862",
  "about": "“PubChem BioAssay data set” (2004)",
  "key": {"[1]": {"molecular_target": "T1, RNA-editing ligase 1, mitochondrial (Trypanosoma brucei brucei, UniProt P86926)", "T1 sequence (P86926 whole entry)": "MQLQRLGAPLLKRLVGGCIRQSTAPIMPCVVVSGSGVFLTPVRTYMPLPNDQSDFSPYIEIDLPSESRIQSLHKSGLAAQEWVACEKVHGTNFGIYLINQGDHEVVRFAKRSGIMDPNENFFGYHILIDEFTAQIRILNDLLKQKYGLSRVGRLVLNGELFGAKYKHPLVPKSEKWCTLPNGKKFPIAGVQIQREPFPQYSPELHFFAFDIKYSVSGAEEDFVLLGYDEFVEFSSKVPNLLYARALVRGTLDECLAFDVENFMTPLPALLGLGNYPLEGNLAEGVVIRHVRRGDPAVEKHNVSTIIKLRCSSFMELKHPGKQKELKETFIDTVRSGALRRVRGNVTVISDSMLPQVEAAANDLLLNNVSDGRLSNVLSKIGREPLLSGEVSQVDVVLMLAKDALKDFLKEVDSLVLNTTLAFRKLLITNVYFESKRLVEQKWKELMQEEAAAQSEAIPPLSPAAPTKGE", "experiment": "inhibition of trypanosome RNA editing ligase – biochemical, fluorescence, Trypanosoma brucei, dose response (AID 1117295)", "assay_type": "functional"}, "[2]": {"molecular_target": "T2, Sentrin-specific protease 1 (Homo sapiens, UniProt Q9P0U3)", "T2 sequence (Q9P0U3 whole entry)": "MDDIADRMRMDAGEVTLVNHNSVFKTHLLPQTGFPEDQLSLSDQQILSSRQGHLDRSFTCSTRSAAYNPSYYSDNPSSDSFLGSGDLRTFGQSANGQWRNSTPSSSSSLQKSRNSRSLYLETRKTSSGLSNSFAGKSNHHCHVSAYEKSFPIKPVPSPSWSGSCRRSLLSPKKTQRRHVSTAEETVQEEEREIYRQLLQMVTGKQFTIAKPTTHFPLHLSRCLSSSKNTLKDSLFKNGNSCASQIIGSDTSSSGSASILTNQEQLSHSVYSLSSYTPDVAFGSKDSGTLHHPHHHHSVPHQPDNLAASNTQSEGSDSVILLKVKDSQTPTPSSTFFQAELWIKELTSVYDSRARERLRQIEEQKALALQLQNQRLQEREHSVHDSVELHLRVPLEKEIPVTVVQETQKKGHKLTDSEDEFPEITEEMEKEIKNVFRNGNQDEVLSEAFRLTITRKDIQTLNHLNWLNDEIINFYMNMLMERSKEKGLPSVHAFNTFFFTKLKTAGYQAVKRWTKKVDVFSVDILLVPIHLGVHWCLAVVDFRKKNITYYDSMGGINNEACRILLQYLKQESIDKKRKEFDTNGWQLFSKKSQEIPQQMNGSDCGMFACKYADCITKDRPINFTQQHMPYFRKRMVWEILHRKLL", "experiment": "Dose response confirmation of small molecule inhibitors of the catalytic domain of the SUMO protease, SENP1 in a FRET assay.", "assay_type": "functional", "conditions": "read-out: IC50_Mean"}, "[3]": {"molecular_target": "T2, Sentrin-specific protease 1", "experiment": "SENP1 catalytic domain blockers, concentration series – biochemical, kinetic FRET, dose response (AID 651697)", "assay_type": "functional", "conditions": "read-out: IC50_Mean"}, "[4]": {"molecular_target": "FAD-linked sulfhydryl oxidase ALR (Homo sapiens, UniProt P55789)", "sequence (P55789 whole entry)": "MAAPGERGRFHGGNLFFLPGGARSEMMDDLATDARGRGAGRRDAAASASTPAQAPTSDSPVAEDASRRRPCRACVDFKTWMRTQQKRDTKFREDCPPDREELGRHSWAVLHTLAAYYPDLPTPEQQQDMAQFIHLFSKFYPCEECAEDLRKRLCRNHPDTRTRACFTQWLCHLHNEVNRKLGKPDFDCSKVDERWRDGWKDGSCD", "experiment": "ALR-catalysed DTT oxidation blockers – biochemical, H2O2 detection, luminescence, cherry-pick, dose response (AID 493248)"}, "[5]": {"experiment": "viability inhibitors of stage V gametocytes – luminescence, dose response (AID 1117278);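 further: gametocytes exposed to compound for 24 hours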", "assay_type": "functional, cell-based"}, "[6]": {"experiment": "viability loss in human Jurkat cells – cell-based, luminescence, cytotoxicity control for P. falciparum gametocyte viability project, dose response (AID 1117277);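 further: potency reflects loss of cellular ATP meaning fewer viable cells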", "assay_type": "functional"}, "[7]": {"molecular_target": "T3, Methionyl-tRNA synthetase, putative (Trypanosoma brucei brucei, UniProt Q38C91)", "T3 sequence (Q38C91 whole entry)": "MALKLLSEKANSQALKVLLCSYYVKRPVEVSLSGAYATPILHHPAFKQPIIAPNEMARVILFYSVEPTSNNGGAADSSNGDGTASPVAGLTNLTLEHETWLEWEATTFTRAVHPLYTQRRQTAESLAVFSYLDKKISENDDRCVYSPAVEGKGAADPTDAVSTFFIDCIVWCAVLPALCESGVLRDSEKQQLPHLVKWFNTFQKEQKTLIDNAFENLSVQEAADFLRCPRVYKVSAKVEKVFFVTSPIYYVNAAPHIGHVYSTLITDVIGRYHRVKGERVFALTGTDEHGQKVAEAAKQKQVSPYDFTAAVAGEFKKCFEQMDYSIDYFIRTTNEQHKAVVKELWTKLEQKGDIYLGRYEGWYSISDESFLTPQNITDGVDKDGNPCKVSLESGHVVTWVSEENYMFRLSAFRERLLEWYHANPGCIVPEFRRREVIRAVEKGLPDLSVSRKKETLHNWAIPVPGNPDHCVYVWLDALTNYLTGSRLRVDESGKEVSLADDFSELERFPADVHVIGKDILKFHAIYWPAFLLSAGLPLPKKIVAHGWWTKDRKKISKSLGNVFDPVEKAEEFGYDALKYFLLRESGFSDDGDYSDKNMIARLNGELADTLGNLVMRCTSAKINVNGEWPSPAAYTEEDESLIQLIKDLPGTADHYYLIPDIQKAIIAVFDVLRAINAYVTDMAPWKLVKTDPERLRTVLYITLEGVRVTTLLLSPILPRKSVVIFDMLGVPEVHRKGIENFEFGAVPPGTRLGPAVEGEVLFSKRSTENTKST", "assay_type": "functional, Trypanosoma brucei brucei strain 927/4 GUTat10.1"}, "[8]": {"experiment": "Counterscreen for inhibitors of Trypanosoma brucei methionyl tRNA synthetase (MetRS): Luminescence-based cell-based high throughput dose response assay to identify compounds that are cytotoxic to Jurkat human T lymphocyte cells.", "assay_type": "functional"}, "[9]": {"molecular_target": "T4, Long-chain-fatty-acid--AMP ligase FadD28 (Mycobacterium tuberculosis, UniProt P9WQ59)", "T4 sequence (P9WQ59 whole entry)": "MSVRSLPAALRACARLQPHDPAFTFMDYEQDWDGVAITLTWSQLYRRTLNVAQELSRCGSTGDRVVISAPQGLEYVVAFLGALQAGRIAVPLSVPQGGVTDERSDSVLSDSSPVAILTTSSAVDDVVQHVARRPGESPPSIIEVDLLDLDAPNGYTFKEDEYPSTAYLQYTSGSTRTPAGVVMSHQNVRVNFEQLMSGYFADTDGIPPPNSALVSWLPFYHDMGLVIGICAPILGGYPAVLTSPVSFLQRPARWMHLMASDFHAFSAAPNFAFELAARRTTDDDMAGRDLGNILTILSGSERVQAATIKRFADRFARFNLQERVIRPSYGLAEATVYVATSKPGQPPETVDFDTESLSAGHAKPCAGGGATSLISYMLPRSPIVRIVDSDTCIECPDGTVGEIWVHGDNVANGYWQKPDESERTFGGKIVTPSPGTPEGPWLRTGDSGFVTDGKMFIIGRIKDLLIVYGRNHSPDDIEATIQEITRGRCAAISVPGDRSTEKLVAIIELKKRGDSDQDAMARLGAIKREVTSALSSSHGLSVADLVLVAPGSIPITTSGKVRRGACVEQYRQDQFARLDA", "experiment": "Fluorescence polarization aasay to screen for inhibitors that compete for the binding of FadD28 to a bisubstrate Measured in Biochemical System Using Plate Reader - 2147-01_Inhibitor_Dose_CherryPick_Activity.", "assay_type": "functional, Mycobacterium tuberculosis H37Rv"}, "[10]": {"experiment": "P. falciparum Dd2 growth inhibitors, dose response, SYBR Green, cherry-picked samples (AID 1159567)", "assay_type": "functional, cell-based"}, "[11]": {"experiment": "toxicity to human hepatoma HepG2 cells – cell-based, cherry-picked samples, cytotoxicity control, dose response (AID 1159577)", "assay_type": "functional"}, "[12]": {"molecular_target": "NAD-dependent protein deacylase sirtuin-5, mitochondrial (Homo sapiens, UniProt Q9NXA8)", "sequence (Q9NXA8 whole entry)": "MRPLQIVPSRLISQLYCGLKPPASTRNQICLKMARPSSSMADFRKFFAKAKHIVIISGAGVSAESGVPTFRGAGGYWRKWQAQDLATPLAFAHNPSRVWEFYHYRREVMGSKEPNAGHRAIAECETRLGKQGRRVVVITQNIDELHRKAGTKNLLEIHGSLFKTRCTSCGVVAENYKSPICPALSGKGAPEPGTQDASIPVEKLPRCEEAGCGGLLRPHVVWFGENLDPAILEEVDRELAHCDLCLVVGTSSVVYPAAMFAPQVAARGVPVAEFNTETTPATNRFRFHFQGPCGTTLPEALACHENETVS", "experiment": "sirtuin-5 deacylation blockers, concentration series – biochemical, fluorescence imaging, cherry-pick, set 5, dose response (AID 720591);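 further: desuccinylation of succinyl peptide AMC substrate read as fluorescence after trypsin release; potency of inhibitors that lower fluorescence and may act on trypsin instead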"}, "Kallikrein-7": {"molecular_target": "Kallikrein-7 (Homo sapiens, UniProt P49862)", "sequence (P49862 whole entry)": "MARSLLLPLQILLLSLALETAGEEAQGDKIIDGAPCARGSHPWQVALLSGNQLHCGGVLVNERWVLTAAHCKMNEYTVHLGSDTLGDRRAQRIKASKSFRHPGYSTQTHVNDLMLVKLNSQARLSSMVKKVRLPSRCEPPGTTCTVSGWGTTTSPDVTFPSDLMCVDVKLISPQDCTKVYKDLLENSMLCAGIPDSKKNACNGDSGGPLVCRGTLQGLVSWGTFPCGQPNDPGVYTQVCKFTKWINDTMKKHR", "experiment": "Fluorescence Intensity-based biochemical primary high throughput dose response assay to identify activators of kallikrein-7 (K7) zymogen."}, "cells [13]": {"experiment": "cells", "assay_type": "functional, cell-based"}, "[14]": {"molecular_target": "T5, Trace amine-associated receptor 1 (Homo sapiens, UniProt Q96RJ0)", "T5 sequence (Q96RJ0 whole entry)": "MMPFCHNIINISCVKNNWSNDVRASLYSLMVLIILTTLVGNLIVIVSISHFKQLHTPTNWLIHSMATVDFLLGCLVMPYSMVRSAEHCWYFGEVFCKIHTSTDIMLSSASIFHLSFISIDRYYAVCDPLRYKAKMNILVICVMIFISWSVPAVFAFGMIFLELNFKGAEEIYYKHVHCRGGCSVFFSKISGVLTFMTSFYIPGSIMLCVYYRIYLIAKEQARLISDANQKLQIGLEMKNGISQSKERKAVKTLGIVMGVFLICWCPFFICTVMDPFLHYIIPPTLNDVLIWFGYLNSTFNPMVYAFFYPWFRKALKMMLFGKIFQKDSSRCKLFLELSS", "experiment": "Counterscreen for agonists of the human trace amine associated receptor 1 (hTAAR1): Fluorescence-based cell-based high throughput dose response assay to identify hTAAR1 agonist that also desensitize TAAR1 receptor response.", "assay_type": "functional"}, "[15]": {"molecular_target": "T5, Trace amine-associated receptor 1", "experiment": "Fluorescence-based cell-based high throughput dose response assay to identify agonists of the human trace amine associated receptor 1 (TAAR1).", "assay_type": "functional"}, "cells [16]": {"experiment": "cells", "assay_type": "functional, cell-based", "remark": "listed apart in the source"}},
  "note": "The source made the active and inactive calls.",
  "data": [
    {"smiles": "COC(=O)C1=C(C)N(Cc2ccc(C(F)(F)F)cc2)C(NCC2CC2)=NC1c1ccccc1C(F)(F)F", "note": "(stereo not drawn)", "values": [
      {"measurement": "IC50", "setting": "[1]", "value": "> 96.6 µM (inactive)"}
    ]},
    {"smiles": "COc1cc(/C=C2/SC(=S)N(CC(=O)O)C2=O)ccc1OC(=O)c1ccco1", "values": [
      {"measurement": "IC50", "setting": "[2]", "value": "5.86 µM (active)"},
      {"measurement": "IC50", "setting": "[3]", "value": "4.75 µM (active)"},
      {"measurement": "AC50", "setting": "[4]", "value": "3.74 µM (active)"}
    ]},
    {"smiles": "COc1ccc(C(=O)NCC(=O)N2CCc3ccccc3C2)cc1", "values": [
      {"measurement": "IC50", "setting": "[5]", "value": "> 109 µM (inactive)"},
      {"measurement": "IC50", "setting": "[6]", "value": "> 83.3 µM (inactive)"}
    ]},
    {"smiles": "CCc1ccc(NC(=O)C[n+]2cc(-c3ccc(C)cc3)n3c2CCC3)cc1", "values": [
      {"measurement": "IC50", "setting": "[1]", "value": "> 96.6 µM (inactive)"}
    ]},
    {"smiles": "O=C(CSc1ccc(-c2nc3ccccc3[nH]2)cn1)Nc1ccc(S(=O)(=O)N2CCCC2)cc1", "values": [
      {"measurement": "IC50", "setting": "[7]", "value": "8.73 µM (active)"},
      {"measurement": "IC50", "setting": "[8]", "value": "83.3 µM (inactive)"},
      {"measurement": "AC50", "setting": "[9]", "value": "> 100 µM (inactive)"}
    ]},
    {"smiles": "N#Cc1ccc(-c2ccc([C@@H]3[C@@H]4CN(C(=O)Nc5ccc(C(F)(F)F)cc5)C[C@H]3N4)cc2)cc1", "values": [
      {"measurement": "AC50", "setting": "[10]", "value": "5.94 µM (active)"},
      {"measurement": "AC50", "setting": "[11]", "value": "20.5 µM (active)"}
    ]},
    {"smiles": "CCC1CN(C(=O)N2CCC(C(=O)Nc3ccccc3F)CC2)c2ccccc2O1", "note": "(stereo not drawn)", "values": [
      {"measurement": "AC50", "setting": "[12]", "value": "> 30 µM (inactive)"}
    ]},
    {"smiles": "Cc1c(C)c2c(OCC(=O)N[C@@H](CC(C)C)C(=O)O)cc3c(c2oc1=O)CCC(C)(C)O3", "values": [
      {"measurement": "EC50", "setting": "Kallikrein-7", "value": "> 69.5 µM (inactive)"}
    ]},
    {"smiles": "Cc1ccc(NC(=O)CNc2ccccc2N2CCCC2=O)cc1S(=O)(=O)N1CCOCC1", "values": [
      {"measurement": "AC50", "setting": "[9]", "value": "21.8 µM (active)"}
    ]},
    {"smiles": "c1ccc2c(c1)CC1CNCc3cccc(c31)S2", "note": "(stereo not drawn)", "values": [
      {"measurement": "EC50", "setting": "cells [13]", "value": "> 29.9 µM (inactive)"},
      {"measurement": "IC50", "setting": "[14]", "value": "7.1 µM (active)"},
      {"measurement": "EC50", "setting": "[15]", "value": "5.87 µM (active)"},
      {"measurement": "IC50", "setting": "cells [16]", "value": "> 29.9 µM (inactive)"}
    ]},
    {"smiles": "CC/C(=N\\CCc1ccccc1)C1=C(O)CCC1=O", "values": [
      {"measurement": "EC50", "setting": "cells [13]", "value": "> 29.9 µM (inactive)"},
      {"measurement": "IC50", "setting": "[14]", "value": "2.34 µM (active)"},
      {"measurement": "EC50", "setting": "[15]", "value": "0.351 µM (active)"},
      {"measurement": "IC50", "setting": "cells [16]", "value": "> 29.9 µM (inactive)"}
    ]}
  ]
}
